Measurements from patent US12122811B2, “BDNF mimetic peptide amphiphiles” (Northwestern University, priority 2018, dated 2024).
Positions of bridges follow the written chain, without caps; N, C: chain ends. Non-standard residues stand in square brackets, D forms with d. Residues, ends and D or L forms follow the SMILES beside them. Chains are numbered I, II in the order given. *: point of attachment. PEG6 = NCCOCCOCCOCCOCCOCCOCCC(=O)O; Palmitoyl = CCCCCCCCCCCCCCCC(=O)*

Assays:
[1] = Dynamic light scattering (DLS); assay type: physicochemical; conditions: BDNF PA at 100 mol %
Experimental: 2.2.2. Dynamic Light Scattering (DLS). Measurements were performed on a Malvern Zetasizer Nano ZSP light scattering spectrometer. Samples were prepared as previously described. During the sample measurement, the temperature was kept at 25° C. The sample was equilibrated for 30 seconds before each measurement was taken. The duration of each measurement was 10 seconds and the measurement angle was 173° backscatter. The attenuator was determined by the instrument automatically, as was the number of accumulations for each run. Each measurement run was repeated 3 times.

[2] = system: primary mouse cortical neurons; experiment: Morphometric analysis of neurites (MAP2, SMI312 immunocytochemistry); assay type: cell-based; conditions: 24 h
Experimental: For morphometric analysis and cell viability assays, cells were cultured in 24 or 48 well plates at a density of 25,000 or 40,000 cells/well respectively, for three days before being treated. Cells were then treated for 24 hours, 3 days or 7 DIV. Samples were fixed in 4% PFA for 15 min (20 min for gels) at room temperature (RT) for immunofluorescence studies.
Immunofluorescence. For immunofluorescence, fixed samples (4% PFA for 15 min at RT) were incubated with primary antibodies overnight and Alexa 488 or Alexa 555 secondary antibodies (1:2000, Invitrogen) were used for 2 h at room temperature. The following primary antibodies were used: mouse anti-Tuj-1 (neuronal marker 1:4000, BioLegend), rabbit anti-Tuj-1 (neuronal marker, 1:4000, BioLegend) rabbit anti-MAP2 (marker for mature neurons 1:2000, BioLegend), mouse anti-SMI312 (axonal filament marker 1:1000, BioLegend), rabbit anti-Synaptophysin (marker for synaptic vesicles, 1:1000, Abcam) and DAPI (nuclear stain, 1:2000, Invitrogen). If not already in a glass bottom plate (MatTek), the preparations were mounted with Immu-Mount (Thermo Scientific) for imaging.
Imaging and Morphometric Analysis. Throughout the experiments, a digital camera (Nikon) mounted on a tissue culture microscope was used to take bright field images of cells. Nikon A1R confocal laser-scanning microscope with GaAsP detectors was used to visualize and image fluorescent preparations. Images were processed using an ImageJ (National Institutes of Health) plugin. Confocal images were reconstructed by NIS Elements Advanced Research Microscope Imaging software (version 4.20) or Imaris program (version 8.1, Bitplane Scientific software) for 3D interactive data viewing with normal or shadow projections of cells screened under Nikon A1R confocal laser-scanning microscope with GaAsP detectors.
For morphometric analysis, NeuronJ was used to trace and measure neuronal extensions.^4 For quantification of number of primary neurites and neurite length, a minimum of 60 randomly selected cells were analyzed with a minimum of 2 independent batches of culture for each condition. The images were arranged in Adobe Photoshop (v.7.0), with adjustments for contrast, brightness and color balance to obtain optimal visual reproduction of data.

CCCCCCCCCCCCCCCC(=O)N[C@H](C(=O)N[C@H](C(=O)N[C@@H](C)C(=O)N[C@@H](C)C(=O)N[C@@H](CCC(=O)O)C(=O)N[C@@H](CCC(=O)O)C(=O)N[C@@H](CCC(=O)O)C(=O)N[C@@H](CCC(=O)O)C(=O)NCCOCCOCCOCCOCCOCCOCCC(=O)NCCCC[C@@H]1NC(=O)[C@H]2CCCN2C(=O)[C@H](CCCNC(=N)N)NC(=O)[C@H](CCCCN)NC(=O)[C@H](CCCCN)NC1=O)C(C)C)C(C)C [BDNF PA, RKK(aK)(dP)-(PEG6 Spacer)-EEEEAAVV-C16 (SEQ ID NO: 5)] (I: Palmitoyl-VVAAEEEE[PEG6] / II: cyclo(KKKR[dP]); amide I:C-II:1)
micelle diameter (DLS) [1]: ~12 nm
neurite number, BDNF PA versus native BDNF protein [2]: no statistical differences
number of primary neurites ([2]; vs control conditions): positive tendency
number of secondary neurites ([2]; vs control conditions): significant increase
total dendrite and axon length ([2]; vs native BDNF protein and control conditions): significant increase
